Data taken from publication PMC6792352, “Limited Chemical Structural Diversity Found to Modulate Thyroid Hormone Receptor in the Tox21 Chemical Library” (Environmental Health Perspectives, 2019).
Like-named read-outs stand apart in the source and are kept apart here.

Key:
in vitro [1] = settings: rat
[2] = system: thyroid hormone receptor (endogenous TRα and TRβ); experiment: GH3-TRE-Ag primary qHTS, luciferase reporter, agonist mode (TOX21_TR_LUC_GH3_Agonist, aeid 803); type: cell-based, rat; settings: for TR_LUC_GH3_Agonist_EMAX (% Control): Table S5; for GH3-TRE-Ag AC50 hitc: hit call from tcpl
[3] = Global cytotoxicity: eighteen Tox21 cell viability assays; type: cell-based
[4] = system: Tox21 cell viability assays (different cell types); experiment: as above; type: cell-based
[5] = system: thyroid hormone receptor (endogenous TRα and TRβ); experiment: GH3-TRE-Antag primary qHTS, luciferase reporter, antagonist mode with 1 nM T3 (TOX21_TR_LUC_GH3_Antagonist, aeid 804); type: cell-based, rat
[6] = system: thyroid hormone receptor (endogenous TRα and TRβ); experiment: GH3-TRE-Ag-Followup confirmation (TOX21_TR_LUC_GH3_Agonist_Followup, aeid 2226); type: cell-based, rat; settings: for AC50: confirmation, agonist mode, read-out: GH3-TRE-Ag-Followup AC50; for GH3-TRE-Ag-Followup hitc: hit call from tcpl
[7] = system: thyroid hormone receptor (TR); experiment: Classification of TR actives across characterization assays (TR-Ag / RXR-Ag; TR model binary); settings: for Categorization Code: TR agonist characterization; for Classification: TR-Ag = TR agonist, RXR-Ag = RXR agonist
How it was run: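 Pharmaceuticals excluded; actives called from GH3-TRE qHTS (agonist, antagonist, viability) on 8,305 chemicals. Confirmation of 84 selected chemicals used GH3-TRE-Ag, mammalian one-hybrid TRβ and RXRα UAS-bla HEK 293T specificity screens, parental HEK293T viability, and two TR:coactivator recruitment assays.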

GH3-TRE-Luc cell line [8] = settings: rat, 24 h
[9] = target: T1, human TRβ ligand-binding domain (Homo sapiens, UniProt P10828); experiment: TRb-bla agonist mammalian one-hybrid beta-lactamase assay (TOX21_TRB_BLA_Agonist_Followup_ratio, aeid 2236); type: cell-based; parameters: host or cells: GeneBLAzer UAS-bla HEK 293T; settings: for Emax: read-out: EMax (% of Control) trb-bla-agonist-followup-1; for AC50: HEK 293T one-hybrid, agonist mode, read-out: TRb-bla-Ag AC50; for TRb-bla hitc: hit call from tcpl, agonist
T1 sequence (P10828 217-461 limits assumed): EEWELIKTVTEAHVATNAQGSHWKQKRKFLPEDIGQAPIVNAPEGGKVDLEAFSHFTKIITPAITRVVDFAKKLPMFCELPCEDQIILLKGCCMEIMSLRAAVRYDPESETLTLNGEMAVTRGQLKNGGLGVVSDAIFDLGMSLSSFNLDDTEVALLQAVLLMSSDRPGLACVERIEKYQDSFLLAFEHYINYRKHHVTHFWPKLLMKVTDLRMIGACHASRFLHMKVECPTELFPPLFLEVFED

[10] = target: T2, TRα ligand-binding domain (Homo sapiens, UniProt P10827); experiment: TRa-coa LanthaScreen TR-FRET coactivator (SRC-2 peptide) recruitment, agonist (TOX21_TRA_COA_Agonist_Followup_ratio, aeid 2230); type: biochemical; settings: for AC50: cell-free coactivator recruitment, read-out: TRa-coa-Ag AC50; for TRa-coa hitc: hit call from tcpl, agonist; for Emax: read-out: EMax (% of Control) tra-coa-agonist-followup-1
T2 construct: the receptor LBDs expressed as glutathione S-transferase (GST) fusion proteins; purchased
T2 sequence (P10827 163-410 isoform P10827-2 limits assumed, other chains not shown): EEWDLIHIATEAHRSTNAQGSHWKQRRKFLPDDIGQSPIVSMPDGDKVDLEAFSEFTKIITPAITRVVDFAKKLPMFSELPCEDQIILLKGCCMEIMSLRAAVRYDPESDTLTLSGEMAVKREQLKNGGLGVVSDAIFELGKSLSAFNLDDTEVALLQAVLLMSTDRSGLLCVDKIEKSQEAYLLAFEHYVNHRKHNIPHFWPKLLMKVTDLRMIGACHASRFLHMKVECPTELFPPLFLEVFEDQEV

GH3-TRE-Luc cell line [11] = experiment: GH3-TRE-Via cell viability, CellTiter-Fluor (TOX21_TR_LUC_GH3_Antagonist_viability, aeid 805)
[12] = target: T1, human TRβ ligand-binding domain; experiment: TRb-coa LanthaScreen TR-FRET coactivator (SRC-2 peptide) recruitment, agonist (TOX21_TRB_COA_Agonist_Followup_ratio, aeid 2244); type: biochemical; parameters: host or cells: GeneBLAzer UAS-bla HEK 293T; settings: for Emax: read-out: EMax (% of Control) trb-coa-agonist-followup-1; for AC50: cell-free coactivator recruitment, read-out: TRb-coa-Ag AC50; for TRb-coa hitc: hit call from tcpl, agonist
human RXRα = target: T3, human RXRα (Homo sapiens, UniProt P19793); experiment: RXRa-bla-Ag mammalian one-hybrid beta-lactamase assay (TOX21_TR_RXR_BLA_Agonist_Followup_ratio, aeid 2253); type: cell-based; settings: for AC50: HEK 293T one-hybrid, agonist mode, inactive set to 1,000, read-out: RXRa-bla-Ag AC50; for tr-followup-rxr-bla-agonist-1 hitc: hit call from tcpl; for Emax: read-out: EMax (% of Control) tr-followup-rxr-bla-agonist-1
T3 construct: host or cells: GeneBLAzer UAS-bla HEK 293T
T3 sequence (P19793 227-458 limits assumed): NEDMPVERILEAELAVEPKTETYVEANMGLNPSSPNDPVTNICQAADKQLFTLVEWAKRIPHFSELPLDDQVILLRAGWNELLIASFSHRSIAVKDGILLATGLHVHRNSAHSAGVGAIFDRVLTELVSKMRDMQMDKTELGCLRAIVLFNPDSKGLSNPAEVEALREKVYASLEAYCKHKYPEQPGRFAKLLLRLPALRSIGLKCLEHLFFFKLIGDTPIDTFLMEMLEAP

[13] = GH3-TRE-Via cell viability, CellTiter-Fluor (TOX21_TR_LUC_GH3_Antagonist_viability, aeid 805); settings: rat
in vitro [14] = settings: rat, gh3-tre-luc cells, AC50 (uM) modified / 1000
[15] = antagonist candidates, inactive samples arbitrarily set to AC50=1,000 μM, read-out: GH3-TRE-Ag AC50
[16] = antagonist mode, 1 nM T3; read-out: GH3-TRE-Antag AC50
[17] = median over 18 Tox21 cell viability assays, inactive set to 1,000, read-out: Global cytotoxicity AC50 median
[18] = percentage of 18 Tox21 viability assays with hitc=1
[19] = primary qHTS, agonist mode, 24 h, top concentration 92 μM, read-out: GH3-TRE-Ag AC50

Row | SMILES | AC50 at 24 h (in vitro [1]) [µM] | AC50 [2, 15] [µM] | AC50 [3] [µM] | Active in global cytotoxicity assays (%) [4] [%] | AC50 [5, 16] [µM] | EMax (% of Control) gh3-tre-agonist-followup-1_agonist [6] | AC50 [6] [µM] | GH3-TRE-Ag-Followup hitc [6] | GH3-TRE-Ag AC50 hitc [2] | Categorization Code [7] | Classification [7] | GLOBAL CYTOTOXICITY cytotox.number_Active [4] | further results
1 | CC(C)C[C@H](NC(=O)[C@H](CCc1ccccc1)NC(=O)CN1CCOCC1)C(=O)N[C@@H](Cc1ccccc1)C(=O)N[C@@H](CC(C)C)C(=O)[C@@]1(C)CO1 [Carfilzomib] | 0.037 | > 92 | 0.46 | 64.4 | 0.025 |  |  |  |  |  |  |  | active rate in Tox21 viability/cytotoxicity assays [4]: 64%
2 | N[C@@H](Cc1cc(I)c(Oc2ccc(O)c(I)c2)c(I)c1)C(=O)O [3,5,3ʹ-Triiodothyronine, reference compound] | 41.7 |  | > 92 |  |  | […] | […] | […] | […] | TR-Ag | TR-Ag | 0 | EMax (% of Control) gh3-tre-agonist [2]: […]; TR_LUC_GH3_Agonist_EMAX (% Control) [2]: […]; AC50 ([2]; Table S5, chemical level, listed as 3,5,3'-Triiodothyronine, read-out: TR_LUC_GH3_Agonist_AC50): […]; GLOBAL CYTOTOXICITY cytotox.median [4]: >92; TR_LUC_GH3_Antagonist_viability hitc (GH3-TRE-Luc cell line [8]): […]
3 | COc1cc(C)c(/C=C/C(C)=C/C=C/C(C)=C/C(=O)O)c(C)c1C [Acitretin, reference compound] | > 92 |  |  |  |  | 79.4 % of Control | 0.94 | 1 | 1 | RXR-Ag | RXR-Ag | 0 | Emax [9]: 4.1%; AC50 [10]: > 92 µM; TRa-coa hitc [10]: 0; Emax [10]: 3.4%; EMax (% of Control) gh3-tre-agonist [2]: 24.4 % of Control; TR_LUC_GH3_Antagonist_viability hitc (GH3-TRE-Luc cell line [11]; hit call from tcpl): 0; Emax [12]: 4.8%; AC50 ([3]; median over 18 Tox21 cell viability assays (Judson et al. 2016, invitrodb_v2), read-out: Global cytotoxicity AC50 median): > 92 µM; GLOBAL CYTOTOXICITY cytotox.median [4]: >92; AC50 (human RXRα): 0.564 µM; tr-followup-rxr-bla-agonist-1 hitc (human RXRα): 1; Emax (human RXRα): 105%
4 | CCCc1c(OCCCCc2nnn[nH]2)ccc(C(C)=O)c1O [Tomelukast, reference compound] |  | > 92 |  |  |  |  |  |  |  |  |  |  | AC50 at 24 h [13]: > 92 µM; AC50 [3, 17]: 14.4 µM; Active in global cytotoxicity assays (%) [4, 18]: 9.1%
5 | C=C(c1ccc(C(=O)O)cc1)c1cc2c(cc1C)C(C)(C)CCC2(C)C [Bexarotene, reference compound] | 10.4 |  | 23.9 |  |  | 37.1 % of Control | 0.017 | 1 | 0 | RXR-Ag | RXR-Ag | 15 | AC50 [9]: > 92 µM; TRb-bla hitc [9]: 0; Emax [9]: 11.8%; AC50 [10]: > 92 µM; TRa-coa hitc [10]: 0; Emax [10]: -0.4%; EMax (% of Control) gh3-tre-agonist [2]: 26.0 % of Control; AC50 [2, 19]: 0.0077 µM; AC50 [12]: > 92 µM; TRb-coa hitc [12]: 0; Emax [12]: -0.427%; GLOBAL CYTOTOXICITY cytotox.median [4]: 23.9; TR_LUC_GH3_Antagonist_viability hitc (GH3-TRE-Luc cell line [8]): 1
6 | O=C(O)Cc1cc(I)c(Oc2ccc(O)c(I)c2)c(I)c1 [Tiratricol, reference compound] | > 92 |  | 27 |  |  | 105.1 % of Control | 0.0002 | 1 | 1 | TR-Ag | TR-Ag | 4 | TR_LUC_GH3_Agonist_EMAX (% Control) [2]: 104.7 % Control; GLOBAL CYTOTOXICITY cytotox.median ([4]; median over Tox21 viability assays): 27.0; TR_LUC_GH3_Antagonist_viability hitc (GH3-TRE-Luc cell line [8]): 0
7 | COc1cccc2c1C(=O)c1c(O)c3c(c(O)c1C2=O)C[C@@](O)(C(C)=O)C[C@@H]3O[C@H]1C[C@H](N)[C@H](O)[C@H](C)O1 [Daunorubicin] | 1.01 |  | 10.5 | 66.1 |  |  |  |  |  |  |  |  | AC50 ([2]; read-out: GH3-TRE-Ag AC50): > 92 µM; active rate in Tox21 viability/cytotoxicity assays [4]: two-thirds; AC50 ([5]; read-out: GH3-TRE-Antag AC50; antagonist mode, 1 nM T3): 0.7 µM
8 | CCCCCCCCCCCCn1cc[n+](C)c1.[I-] [1-Dodecyl-3-methylimidazolium iodide] |  | > 92 |  |  | 1.33 |  |  |  |  |  |  |  | AC50 (in vitro [1]): 5.1 µM; AC50 [3, 17]: 41.1 µM; Active in global cytotoxicity assays (%) [4, 18]: 74.2%
9 | CCCCCOc1ccc(C2SC(=O)NC2=O)cc1OCC (stereo not drawn) [Risarestat, reference compound] |  | > 92 |  |  |  |  |  |  |  |  |  |  | AC50 at 24 h [13]: > 92 µM; cytotoxicity in GH3 viability assay (GH3-TRE-Luc cell line [11]): lacked cytotoxicity; AC50 [3, 17]: 16.4 µM; Active in global cytotoxicity assays (%) [4, 18]: 11.9%
10 | CN(C)c1ccc(/N=N/c2ccccc2C(=O)O)cc1 [Methyl red] | 14.6 | > 92 | 48.5 | 48.5 | 8.79 |  |  |  |  |  |  |  | 
11 | C=C1CC[C@@H]2[C@](C)(CO)[C@H](O)CC[C@@]2(C)[C@@H]1C/C=C1/C(=O)OC[C@H]1O [Andrographolide] |  | > 92 |  |  | 24.6 |  |  |  |  |  |  |  | AC50 at 24 h [13]: 19.4 µM
12 | O=C(O)CCNC(=O)c1ccccc1 [Betamipron, reference compound] | > 92 |  | > 92 |  |  | 90.7 % of Control | 1.68 | 1 | 1 | TR-Ag | TR-Ag | 0 | AC50 [9]: 14 µM; TRb-bla hitc [9]: 1; Emax [9]: 85.5%; AC50 [10]: 10.4 µM; TRa-coa hitc [10]: 1; Emax [10]: 120%; EMax (% of Control) gh3-tre-agonist [2]: 72.8 % of Control; activity in GH3-TRE agonist assay [2]: concentration-dependent activity; AC50 [2, 19]: 11.8 µM; AC50 [12]: 11.8 µM; TRb-coa hitc [12]: 1; Emax [12]: 30.8%; GLOBAL CYTOTOXICITY cytotox.median [4]: >92; TR_LUC_GH3_Antagonist_viability hitc (GH3-TRE-Luc cell line [8]): 0; activity in RXRα-bla-Ag assay (human RXRα): lack of activity; AC50 (human RXRα): > 92 µM; tr-followup-rxr-bla-agonist-1 hitc (human RXRα): 0; Emax (human RXRα): 2.9%
13 | Cc1cccc(Nc2ccccc2C(=O)O)c1C [Mefenamic acid] | > 92 | > 92 | 50.8 | 4.5 | 19.5 |  |  |  |  |  |  |  | CC50 at 24 h (in vitro [14]): > 50 µM; active rate in Tox21 viability/cytotoxicity assays [4]: 4.5%
14 | COC(=O)C[C@](O)(CCCC(C)(C)O)C(=O)O[C@@H]1C(OC)=C[C@]23CCCN2CCc2cc4c(cc2[C@H]13)OCO4 [Omacetaxine mepesuccinate] | 0.057 | > 92 | 0.06 | 60.0 | 0.029 |  |  |  |  |  |  |  | CC50 at 24 h (in vitro [14]): 0.0816 µM
15 | c1cc(N(CC2CO2)CC2CO2)ccc1Cc1ccc(N(CC2CO2)CC2CO2)cc1 (stereo not drawn) [4,4ʹ-Methylenebis(N,N-diglycidylaniline)] |  | > 92 |  |  | 8.03 |  |  |  |  |  |  |  | AC50 (in vitro [1]): 11.1 µM; AC50 [3, 17]: 45.3 µM; Active in global cytotoxicity assays (%) [4, 18]: 59.1%
